Measurements from the OPERA property sets (Mansouri et al. 2018).

Settings: for log10 BCF / log10 biotransformation half-life (days): fish

For `Cc1c(NC(=O)C(C)N(C)C)c(=O)n(-c2ccccc2)n1C` (centres undefined), the melting point was 181 °C.
Molecule `CC=C(C)C=CC=C(C)C` has a melting point of -28 °C.
Work on `NC(=O)/C=C/C(=O)[O-]` yielded a melting point of 172 °C.
`C1CCNCC1` gave a boiling point of 106 °C, a log10 Henry constant (atm·m³/mol) of -5.35 and a log10 Koa of 4.04. For the same molecule, the log10 vapour pressure (mmHg) was 1.51, the melting point was -7 °C and the ready biodegradability was “readily biodegradable”.
In the case of `NCCCCN`, the boiling point is reported as 158 °C and the melting point is reported as 27.5 °C.
For `Cc1ccccc1C(N)=O`, the melting point was 147 °C.
In the case of `CO[C@H]1[C@@H](O)[C@@H](C)O[C@H](O[C@H]2[C@H](Oc3cccc4c(O)c5c(=O)oc6ccc(C)c7c(=O)oc(c34)c5c67)O[C@H](C)[C@H](O)[C@@H]2O)[C@@H]1O`, the melting point is reported as 185 °C.
Work on `C[C@]12CC[C@H]3[C@@H](CCC4=CC(=O)CC[C@@H]43)[C@@H]1CC[C@@H]2OC(=O)CCc1ccccc1` yielded a melting point of 95.5 °C.
`c1ccc2cnccc2c1` showed a boiling point of 243 °C, a log10 vapour pressure (mmHg) of -1.16 and a melting point of 26.5 °C.
Molecule `CC(C)(C)S(=O)(=O)O` has a melting point of 113 °C.
Work on `O=C(O)c1ccccc1C(=O)Nc1ccc(S(=O)(=O)Nc2nccs2)cc1` yielded a melting point of 273 °C.
In the case of `O=c1cccc[nH]1`, the boiling point is reported as 280 °C, the melting point is reported as 108 °C and the ready biodegradability is reported as “readily biodegradable”.
With `O=C(c1ccccc1)N1CCCCC1` the boiling point was 320 °C and the melting point was 49 °C.
In the case of `O=C(O)CO`, the log10 vapour pressure (mmHg) is reported as -1.7, the melting point is reported as 79.5 °C and the ready biodegradability is reported as “readily biodegradable”.
Work on `CCCC(C)C(=O)O` (centres undefined) yielded a boiling point of 196 °C.
Molecule `Nc1cc(Cl)c(Cl)cc1Cl` has a boiling point of 270 °C, a melting point of 96.5 °C and a log10 BCF of 2.33. It also gave a log10 biotransformation half-life (days) of -0.01.
Work on `C=CC[Si](C)(C)C` yielded a boiling point of 86 °C.
With `OB(O)c1ccc(Cl)cc1` the melting point was 286 °C.
In the case of `CCOP(=S)(OCC)Oc1ccc(=O)n(-c2ccccc2)n1`, the log10 vapour pressure (mmHg) is reported as -7.96, the melting point is reported as 55 °C and the log10 BCF is reported as 0.67. The log10 biotransformation half-life (days) was -0.7.
`CN(C)c1ccc(N(C)C)cc1` showed a boiling point of 260 °C and a melting point of 51 °C.
`Nc1c(Br)cc([N+](=O)[O-])cc1Br` gave a melting point of 207 °C.
`O=c1[nH]c(=O)n(C2CCCO2)cc1F` (centres undefined) gave a melting point of 172 °C.
`CC(=O)O[C@H]1C[C@@H]2CC[C@@H]3[C@H](CC[C@@]4(C)[C@H]3C[C@H]([N+]3(C)CCCCC3)[C@@H]4OC(C)=O)[C@@]2(C)C[C@@H]1[N+]1(C)CCCCC1.[Br-].[Br-]` gave a melting point of 215 °C.
Molecule `O=C(O)c1ccccc1SSc1ccccc1C(=O)O` has a melting point of 288 °C.
`CC(C)(SC(=O)N1CCCCC1)c1ccccc1` gave a log10 vapour pressure (mmHg) of -5.4 and a melting point of 39 °C.
`CCCC(=O)OCCC(C)C` gave a boiling point of 179 °C, a log10 vapour pressure (mmHg) of -0.0223 and a melting point of -73.2 °C.
Work on `CCOC(=O)c1cc([N+](=O)[O-])cc([N+](=O)[O-])c1` yielded a log10 Koc (L/kg) of 2.74 and a melting point of 94 °C.
With `C=CCOCCO` the boiling point was 158 °C.
In the case of `CC(C)(C)c1cc(Cc2cc(C(C)(C)C)c(O)c(C(C)(C)C)c2)cc(C(C)(C)C)c1O`, the ready biodegradability is reported as “not readily biodegradable”.
Work on `CCCCCCCC(=O)OCCCCC` yielded a boiling point of 260 °C and a melting point of -34.8 °C.
Molecule `O=[N+]([O-])c1ccc(N=C=S)cc1` has a melting point of 111 °C.
For `C1CN2CCC1CC2`, the log10 vapour pressure (mmHg) was 0.282 and the melting point was 158 °C.
For `COC(=O)C1(S(=O)(=O)c2ccccc2)CC1`, the melting point was 74.5 °C.
In the case of `CCCc1nccnc1C`, the boiling point is reported as 189 °C.
For `CC(Cl)Cl`, the boiling point was 57.4 °C, the log10 Henry constant (atm·m³/mol) was -2.25 and the log10 Koa was 2.41. It also gave a log10 Koc (L/kg) of 1.48, a log10 vapour pressure (mmHg) of 2.36 and a melting point of -96.9 °C. For the same molecule, the ready biodegradability was “not readily biodegradable”.
For `NS(=O)(=O)c1ccc(SCCO)c([N+](=O)[O-])c1`, the melting point was 151 °C.
`NN(c1ccccc1)c1ccccc1` showed a log10 vapour pressure (mmHg) of -3.31 and a melting point of 50.5 °C.
Molecule `FSC(F)(F)F` has a boiling point of 148 °C.
Molecule `CCCCCCCCCCCC(O)CC` (centres undefined) has a melting point of 31.5 °C.
Molecule `O=[N+]([O-])c1cccc(S(=O)(=O)[O][Na])c1` has a log10 BCF of 0.7.
In the case of `CCC1(c2ccccc2)C(=O)N(COC)C(=O)N(COC)C1=O`, the melting point is reported as 117 °C.
With `Cc1cc(NC(N)=O)ccc1F` the log10 Koc (L/kg) was 1.75.
Molecule `COc1cccc(CC(=O)O)c1` has a melting point of 72 °C.
`CC(=O)C1CCCCC1` showed a boiling point of 180 °C and a log10 Henry constant (atm·m³/mol) of -4.47.
`CC(CNC(=O)c1ccccc1)C(=O)OCC(=O)[C@@]12OC(C)(C)O[C@@H]1C[C@H]1[C@@H]3CCC4=CC(=O)C=C[C@]4(C)[C@@]3(F)[C@@H](O)C[C@@]12C` (some centres undefined) gave a melting point of 205 °C.
